PubChem BioAssay AID1845211 (Molecular Pharmacology Branch, DTP, NCI, 2023)

Test system: NCI-H322M multicellular tumor spheroids, viability (% test/control)
Test: Anticancer human tumor NCI-H322M cell line growth inhibition;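 on viability, T/C: spheroids exposed to compound for seven days before readout; 100% = DMSO vehicle control wells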
Conditions: for IC50: curve of first compound; for viability, T/C: stronger effect = lower value
Procedure, shortened: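 Complex tumor spheroids combined malignant cells with endothelial cells and mesenchymal stem cells. DNA-damaging drugs and DNA repair inhibitors were tested alone and in combination, at half-log dilutions down from clinical Cmax (top 10 microM if Cmax unknown), 0.25% DMSO final.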

[1] = second compound 0.003 µM, first compound 0.00949 µM
[2] = second compound 0.003 µM, first compound 0.03 µM
[3] = second compound 0.003 µM, first compound 0.0949 µM
[4] = second compound 0.003 µM, first compound 0.3 µM
[5] = second compound 0.003 µM, first compound 0.949 µM
[6] = second compound 0.003 µM, first compound 3 µM

## Cc1sc2c(c1C)C(c1ccc(Cl)cc1)=NC(CC(=O)Nc1ccc(O)cc1)c1nnc(C)n1-2 (stereo not given) + COc1cc2c(cc1O)CCNC21CSC2c3c(OC(C)=O)c(C)c4c(c3C(COC1=O)N1C(O)C3Cc5cc(C)c(OC)c(O)c5C(C21)N3C)OCO4
Second compound 30 pM
  IC50: > 3 µM
Second compound 94.9 pM
  IC50: > 3 µM
Second compound 0.0003 µM
  IC50: 1.59 µM
Second compound 0.000949 µM
  IC50: 0.333 µM
Second compound 0.003 µM
  IC50: < 0.00949 µM
Second compound 30 pM, first compound 0.00949 µM
  viability, T/C: 113%
Second compound 30 pM, first compound 0.03 µM
  viability, T/C: 118%
Second compound 30 pM, first compound 0.0949 µM
  viability, T/C: 136%
Second compound 30 pM, first compound 0.3 µM
  viability, T/C: 112%
Second compound 30 pM, first compound 0.949 µM
  viability, T/C: 74%
Second compound 30 pM, first compound 3 µM
  viability, T/C: 60.1%
Second compound 94.9 pM, first compound 0.00949 µM
  viability, T/C: 104%
Second compound 94.9 pM, first compound 0.03 µM
  viability, T/C: 112%
Second compound 94.9 pM, first compound 0.0949 µM
  viability, T/C: 123%
Second compound 94.9 pM, first compound 0.3 µM
  viability, T/C: 110%
Second compound 94.9 pM, first compound 0.949 µM
  viability, T/C: 72.5%
Second compound 94.9 pM, first compound 3 µM
  viability, T/C: 53.6%
Second compound 0.0003 µM, first compound 0.00949 µM
  viability, T/C: 117%
Second compound 0.0003 µM, first compound 0.03 µM
  viability, T/C: 133%
Second compound 0.0003 µM, first compound 0.0949 µM
  viability, T/C: 133%
Second compound 0.0003 µM, first compound 0.3 µM
  viability, T/C: 119%
Second compound 0.0003 µM, first compound 0.949 µM
  viability, T/C: 63.9%
Second compound 0.0003 µM, first compound 3 µM
  viability, T/C: 33.1%
Second compound 0.000949 µM, first compound 0.00949 µM
  viability, T/C: 127%
Second compound 0.000949 µM, first compound 0.03 µM
  viability, T/C: 87.6%
Second compound 0.000949 µM, first compound 0.0949 µM
  viability, T/C: 80.7%
Second compound 0.000949 µM, first compound 0.3 µM
  viability, T/C: 60.2%
Second compound 0.000949 µM, first compound 0.949 µM
  viability, T/C: 19.5%
Second compound 0.000949 µM, first compound 3 µM
  viability, T/C: 11.9%
[1]
  viability, T/C: 9.9%
[2]
  viability, T/C: 6.99%
[3]
  viability, T/C: 6.13%
[4]
  viability, T/C: 2.83%
[5]
  viability, T/C: 1.47%
[6]
  viability, T/C: 1.17%

## Cn1ncnc1[C@H]1c2n[nH]c(=O)c3cc(F)cc(c23)N[C@@H]1c1ccc(F)cc1 + CC[C@@]1(O)C(=O)OCc2c1cc1n(c2=O)Cc2cc3c(CN(C)C)c(O)ccc3nc2-1
Second compound 0.003 µM
  IC50: > 3 µM
Second compound 0.00949 µM
  IC50: > 3 µM
Second compound 0.03 µM
  IC50: > 3 µM
Second compound 0.0949 µM
  IC50: 1.63 µM
Second compound 0.3 µM
  IC50: 0.00964 µM
[1]
  viability, T/C: 84.3%
[2]
  viability, T/C: 87.1%
[3]
  viability, T/C: 89.6%
[4]
  viability, T/C: 71.9%
[5]
  viability, T/C: 79.6%
[6]
  viability, T/C: 68.6%
Second compound 0.00949 µM, first compound 0.00949 µM
  viability, T/C: 85.1%
Second compound 0.00949 µM, first compound 0.03 µM
  viability, T/C: 78.2%
Second compound 0.00949 µM, first compound 0.0949 µM
  viability, T/C: 80.6%
Second compound 0.00949 µM, first compound 0.3 µM
  viability, T/C: 73.7%
Second compound 0.00949 µM, first compound 0.949 µM
  viability, T/C: 69%
Second compound 0.00949 µM, first compound 3 µM
  viability, T/C: 70.7%
Second compound 0.03 µM, first compound 0.00949 µM
  viability, T/C: 76.6%
Second compound 0.03 µM, first compound 0.03 µM
  viability, T/C: 72.5%
Second compound 0.03 µM, first compound 0.0949 µM
  viability, T/C: 78.4%
Second compound 0.03 µM, first compound 0.3 µM
  viability, T/C: 70.2%
Second compound 0.03 µM, first compound 0.949 µM
  viability, T/C: 63.7%
Second compound 0.03 µM, first compound 3 µM
  viability, T/C: 65%
Second compound 0.0949 µM, first compound 0.00949 µM
  viability, T/C: 67.4%
Second compound 0.0949 µM, first compound 0.03 µM
  viability, T/C: 56.3%
Second compound 0.0949 µM, first compound 0.0949 µM
  viability, T/C: 59.4%
Second compound 0.0949 µM, first compound 0.3 µM
  viability, T/C: 51.5%
Second compound 0.0949 µM, first compound 0.949 µM
  viability, T/C: 51.2%
Second compound 0.0949 µM, first compound 3 µM
  viability, T/C: 50.2%
Second compound 0.3 µM, first compound 0.00949 µM
  viability, T/C: 50.8%
Second compound 0.3 µM, first compound 0.03 µM
  viability, T/C: 46.2%
Second compound 0.3 µM, first compound 0.0949 µM
  viability, T/C: 49.2%
Second compound 0.3 µM, first compound 0.3 µM
  viability, T/C: 49.9%
Second compound 0.3 µM, first compound 0.949 µM
  viability, T/C: 47%
Second compound 0.3 µM, first compound 3 µM
  viability, T/C: 44.1%

## [2H]c1nc(C)nc([2H])c1-c1cc(NC[C@@H](C)c2cccc3c(C(=O)NC)ccnc23)ncn1 + CC[C@@]1(O)C(=O)OCc2c1cc1n(c2=O)Cc2cc3c(CN(C)C)c(O)ccc3nc2-1
Second compound 0.003 µM
  IC50: > 10 µM
Second compound 0.00949 µM
  IC50: > 10 µM
Second compound 0.03 µM
  IC50: > 10 µM
Second compound 0.0949 µM
  IC50: > 10 µM
Second compound 0.3 µM
  IC50: > 10 µM
Second compound 0.003 µM, first compound 0.0316 µM
  viability, T/C: 91.8%
Second compound 0.003 µM, first compound 0.1 µM
  viability, T/C: 128%
Second compound 0.003 µM, first compound 0.316 µM
  viability, T/C: 94.1%
Second compound 0.003 µM, first compound 1 µM
  viability, T/C: 84.1%
Second compound 0.003 µM, first compound 3.16 µM
  viability, T/C: 112%
Second compound 0.003 µM, first compound 10 µM
  viability, T/C: 103%
Second compound 0.00949 µM, first compound 0.0316 µM
  viability, T/C: 86.6%
Second compound 0.00949 µM, first compound 0.1 µM
  viability, T/C: 89.9%
Second compound 0.00949 µM, first compound 0.316 µM
  viability, T/C: 105%
Second compound 0.00949 µM, first compound 1 µM
  viability, T/C: 89.9%
Second compound 0.00949 µM, first compound 3.16 µM
  viability, T/C: 89.8%
Second compound 0.00949 µM, first compound 10 µM
  viability, T/C: 117%
Second compound 0.03 µM, first compound 0.0316 µM
  viability, T/C: 77.2%
Second compound 0.03 µM, first compound 0.1 µM
  viability, T/C: 75.5%
Second compound 0.03 µM, first compound 0.316 µM
  viability, T/C: 76.7%
Second compound 0.03 µM, first compound 1 µM
  viability, T/C: 82.9%
Second compound 0.03 µM, first compound 3.16 µM
  viability, T/C: 114%
Second compound 0.03 µM, first compound 10 µM
  viability, T/C: 103%
Second compound 0.0949 µM, first compound 0.0316 µM
  viability, T/C: 80.6%
Second compound 0.0949 µM, first compound 0.1 µM
  viability, T/C: 80.7%
Second compound 0.0949 µM, first compound 0.316 µM
  viability, T/C: 78.3%
Second compound 0.0949 µM, first compound 1 µM
  viability, T/C: 74.5%
Second compound 0.0949 µM, first compound 3.16 µM
  viability, T/C: 72.5%
Second compound 0.0949 µM, first compound 10 µM
  viability, T/C: 85.5%
Second compound 0.3 µM, first compound 0.0316 µM
  viability, T/C: 72.2%
Second compound 0.3 µM, first compound 0.1 µM
  viability, T/C: 59%
Second compound 0.3 µM, first compound 0.316 µM
  viability, T/C: 60.2%
Second compound 0.3 µM, first compound 1 µM
  viability, T/C: 60.3%
Second compound 0.3 µM, first compound 3.16 µM
  viability, T/C: 62.2%
Second compound 0.3 µM, first compound 10 µM
  viability, T/C: 64.9%
